Data taken from patent US12703836B2, “Mixture of compounds with high molecular weights, obtained from sugar cane wax (Saccharum officinarum L.)” (CENTRO NACIONAL DE INVESTIGACIONES CIENTÍFICAS, priority 2021, dated 2026).

How the values were obtained:
[1] = test system: pyramidal cells of the CA1 area of the hippocampus; assay: Histological score of brain damage after ischemia/reperfusion; format: in vivo, Mongolian gerbils; settings: gerbils, oral HMWS 200, AcGS 132, AlcG 40, AldG 28, AcGL 200, ASA 60 mg/kg
Description: For the evaluation of the neuroprotective effect of the mixture of high molecular weight substances, the object of the present invention, an experimental model of global cerebral ischemia by occlusion and reperfusion of the carotid arteries was used. The composition of High Molecular Weight Substances (HMWS) obtained in example 1 was subjected to a preclinical test with animals, in which its pharmacological effect was compared with the effects of pure extracts of Fatty Acids in the form of Salts (AcGS), fatty alcohols (AlcG) and high molecular weight aldehydes (AldG), which were administered in the dose equivalent to the proportion in which each one is present in 200 mg/kg of the HMWS Active Ingredient. Furthermore, the effect of HMWS was compared with the effect of pure free fatty acid (AcGL) extract administered at equal doses. Once the quarantine was over, the gerbils were distributed into 8 groups: a negative control that only received vehicle and cerebral ischemia (CI) was not induced and 7 groups with induced CI. […] All treatments were administered orally through intragastric intubation (0.5 mL/70 g body weight) 1 hour prior to induction of ischemia. […] Sections from each brain were evaluated by a light microscopy scoring system for determination of damage to the pyramidal cells of the CA1 area of the hippocampus with bilateral averages. […]

[2] = test system: plasma concentrations of MDA; assay: Plasma lipid peroxidation (SRATB, MDA) after cerebral ischemia/reperfusion; format: in vivo, Mongolian gerbils; settings: gerbils, plasma after I/R; oral HMWS 200, AcGS 132, AlcG 40, AldG 28, AcGL 200, ASA 60 mg/kg
Description: For the evaluation of the neuroprotective effect of the mixture of high molecular weight substances, the object of the present invention, an experimental model of global cerebral ischemia by occlusion and reperfusion of the carotid arteries was used. The composition of High Molecular Weight Substances (HMWS) obtained in example 1 was subjected to a preclinical test with animals, in which its pharmacological effect was compared with the effects of pure extracts of Fatty Acids in the form of Salts (AcGS), fatty alcohols (AlcG) and high molecular weight aldehydes (AldG), which were administered in the dose equivalent to the proportion in which each one is present in 200 mg/kg of the HMWS Active Ingredient. Furthermore, the effect of HMWS was compared with the effect of pure free fatty acid (AcGL) extract administered at equal doses. Once the quarantine was over, the gerbils were distributed into 8 groups: a negative control that only received vehicle and cerebral ischemia (CI) was not induced and 7 groups with induced CI. […] All treatments were administered orally through intragastric intubation (0.5 mL/70 g body weight) 1 hour prior to induction of ischemia. […] To determine lipid peroxidation, the formation of substances reactive to thiobarbituric acid (SRATB) was quantified (according to Ohkawa et al., 1979) in plasma, and was expressed as nmol malondialdehyde (MDA)/mg of protein.

[3] = test system: plasma sulfhydryl (SH) groups; assay: Plasma protein oxidation (sulfhydryl groups) after cerebral ischemia/reperfusion; format: in vivo, Mongolian gerbils; settings: gerbils, plasma after I/R; oral HMWS 200, AcGS 132, AlcG 40, AldG 28, AcGL 200, ASA 60 mg/kg
Description: For the evaluation of the neuroprotective effect of the mixture of high molecular weight substances, the object of the present invention, an experimental model of global cerebral ischemia by occlusion and reperfusion of the carotid arteries was used. The composition of High Molecular Weight Substances (HMWS) obtained in example 1 was subjected to a preclinical test with animals, in which its pharmacological effect was compared with the effects of pure extracts of Fatty Acids in the form of Salts (AcGS), fatty alcohols (AlcG) and high molecular weight aldehydes (AldG), which were administered in the dose equivalent to the proportion in which each one is present in 200 mg/kg of the HMWS Active Ingredient. Furthermore, the effect of HMWS was compared with the effect of pure free fatty acid (AcGL) extract administered at equal doses. […] To determine lipid peroxidation, the formation of substances reactive to thiobarbituric acid (SRATB) was quantified (according to Ohkawa et al., 1979) in plasma, and was expressed as nmol malondialdehyde (MDA)/mg of protein. To determine protein oxidation, sulfhydryl (SH) groups were determined (technique described by Miao-Lin Hu, 1994). […] The absorbance of the supernatant was read at 412 nm. […] The protein concentration was determined by the modified Lowry method ([…], 1987).

[4] = test system: spinal cord of rabbits with Ischemia/Reperfusion (I/R); assay: Histological score of the spinal cord after ischemia/reperfusion; format: in vivo, New Zealand rabbits; settings: oral for 10 days: HMWS 200, AcGS 132, AlcG 40, AldG 28, AcGL 200, ASA 60 (table) mg/kg
Description: Furthermore, the effect of HMWS was compared with that of pure extract of free fatty acids (AcGL) administered at equal doses.
The substances HMWS, AcGS, AlcG, AldG, AcGL and aspirin were prepared as suspensions in an acacia/water vehicle (1%). Once the quarantine was completed, the rabbits were distributed into 8 groups: a negative control that only received vehicle and was not induced ischemia and 7 groups with spinal cord ischemia: a positive control treated only with the vehicle, and 6 groups were treated with HMWS (200 mg/kg), AcGS (132 mg/kg), AlcG (40 mg/kg), AldG (28 mg/kg), AcGL (200 mg/kg), and aspirin (2 mg/kg) as reference substance. All treatments were administered orally via intragastric tubing (1 mL/2 kg body weight) for 10 days.
For the induction of ischemia in the spinal cord, the rabbits were anesthetized with thiopental (20 mg/kg i.v.). The abdomen was depilated, an antiseptic solution was applied, an incision was made in the ventral midline and the retroperitoneal space was penetrated. The aorta and left renal artery were dissected and exposed. The aorta was ligated by placing a clip immediately below the left renal artery for 20 minutes, after which it was removed and the reperfusion period began. […] At 4 and 24 hours of reperfusion, the neurological deficit of the animals was blindly evaluated by 2 independent observers (according to Zivin et al., 1982). […]

## CC(=O)Oc1ccccc1C(=O)O [ASA, aspirin]
[1]; 24 hours reperfusion, mean ± SEM, positive control 2.96 ± 0.07
  Histologic Score (brain, CA1, scale 0-4): 2.00 ± 0.15
[1]; I/R
  Inhibition (%) of histological score of brain damage: 32.4%
[2]
  Inhibition (%) of MDA increase: 0.0%
[3]
  Inhibition (%) of SH groups increase: 12%
[4]; 24 hours after reperfusion, positive control 0.00 ± 0.05
  Histologic Score (spinal cord, 3 = no injuries, 0 = severe): 0.9 ± 0.15
[4]; I/R
  Inhibition (%) of histological damage in the spinal cord: 30%
